Consider 1 molecule from US5998173A, “Process for producing N-acetyl-D-glucosamine” (The University of Bristish Columbia, priority 1996, dated 1999).

Assay [1] deals with T1, Serratia marcescens QM B1466 chitobiase (EC 3.2.1.29) in culture supernatant (Serratia marcescens, UniProt Q54468).
T1 construct: assaying chitobiase activity in S. marcescens culture supernatant over a wide range of substrate concentrations; endogenous in cells; host or cells: Serratia marcescens QM B1466, grown on chitin; enzyme in culture supernatant, not purified
T1 sequence (Q54468 28-885): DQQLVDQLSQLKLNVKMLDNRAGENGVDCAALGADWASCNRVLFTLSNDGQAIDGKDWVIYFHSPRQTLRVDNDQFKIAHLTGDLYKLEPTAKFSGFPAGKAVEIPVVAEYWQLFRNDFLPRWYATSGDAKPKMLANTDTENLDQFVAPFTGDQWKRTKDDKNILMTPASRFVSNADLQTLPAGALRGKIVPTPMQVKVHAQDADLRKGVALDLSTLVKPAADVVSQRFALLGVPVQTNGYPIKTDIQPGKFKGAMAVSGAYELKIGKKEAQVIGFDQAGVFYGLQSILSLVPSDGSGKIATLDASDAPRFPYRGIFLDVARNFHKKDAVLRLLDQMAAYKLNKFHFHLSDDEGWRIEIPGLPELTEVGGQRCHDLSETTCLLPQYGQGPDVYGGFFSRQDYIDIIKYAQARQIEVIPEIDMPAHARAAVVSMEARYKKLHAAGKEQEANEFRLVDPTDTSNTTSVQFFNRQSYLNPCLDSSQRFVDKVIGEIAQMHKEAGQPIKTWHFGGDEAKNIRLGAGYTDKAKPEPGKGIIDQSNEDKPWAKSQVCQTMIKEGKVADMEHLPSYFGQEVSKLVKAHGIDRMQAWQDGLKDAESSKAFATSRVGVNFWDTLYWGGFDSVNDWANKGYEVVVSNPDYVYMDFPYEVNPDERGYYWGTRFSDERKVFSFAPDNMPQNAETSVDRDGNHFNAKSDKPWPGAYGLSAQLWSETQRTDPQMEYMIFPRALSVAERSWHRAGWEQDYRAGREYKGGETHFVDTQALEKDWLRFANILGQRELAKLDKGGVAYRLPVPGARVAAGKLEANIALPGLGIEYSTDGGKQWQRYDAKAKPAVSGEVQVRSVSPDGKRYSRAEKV
Kind of assay: Chitobiase activity assay with pNP-NAG in the presence of N-acetyl-D-glucosamine (end-product inhibition, Eadie-Hofstee analysis). It is filed as biochemical. The text has this:
(§1) FIG. 15a illustrates assays of chitinase (.box-solid.) and chitobiase (.diamond-solid.) in the presence of increasing amounts of N-acetyl-D-glucosamine (NAG). The activity values are expressed as percentage of the initial uninhibited values ([NAG]=0).
FIG. 15b illustrates assays of chitobiase from S. marcescens crude extracts using a range of p-nitrophenyl N-acetyl-β-D-glucosaminide concentrations with or without the addition of a fixed amount of N-acetyl-D-glucosamine (NAG). (.box-solid.) 0.00 mM NAG; (.circle-solid.) 0.21 mM NAG; (Δ) 0.42 mM NAG; (.gradient.) 0.83 mM NAG; and (.diamond-solid.) 1.67 mM NAG.
Chitobiase activity was determined by measuring the amount of p-nitrophenolreleased when an aliquot of enzyme solution (culture supernatant) was incubated with an aqueous solution of p-nitrophenyl-N-acetyl-β-D-glucosamine (pNP-NAG) (Sigma). The buffer used in this assay was 85-mM Tris(hydroxymethylaminomethane)-malate, pH 7.0. […] The liberated p-nitrophenol was spectrophotometrically measured at 405 nm in an ELISA plate reader. […]
The nature of chitobiase inhibition by N-acetyl-D-glucosamine was determined by assaying chitobiase activity in S. marcescens culture supernatant over a wide range of substrate concentrations, with and without the addition of fixed amounts of N-acetyl-D-glucosamine. […]

For assay [2], the system named is Serratia marcescens QM B1466 chitinases (total chitinase activity, EC 3.2.1.14) in culture supernatant. Kind of assay: Chitinase activity assay with pNP-(NAG)2 in the presence of increasing N-acetyl-D-glucosamine (end-product inhibition). It is filed as biochemical. As to conditions: 40-mM NAG in the assay media, p-nitrophenyl substrate analog, 10 min. Here is the method: as §1
Chitinase activity was also determined by using the analog p-nitrophenyl-β-D-N,N'-diacetylchitobiose (pNP-(NAG)2) (Sigma). The assay was performed in triplicate using ELISA plates and contained 50 μL of 100 mM KH2 PO4 buffer containing 1-mM CaCl2 at pH 6.0, 50 μL of pNP(NAG)2 dissolved in nanopure water (400 μg/ml) and 20 μL of enzyme diluted in the same buffer. After 10 minutes of incubation samples were read at 405 nm using an ELISA plate reader. Blanks were used to discount any absorption due to the enzyme or pNP-(NAG)2 alone. The μmoles of p-nitrophenol released by the samples was calculated using a standard curve. Units of enzymatic activity were determined as the number of μmoles of p-nitrophenol released per minute under the assay conditions.
End-product inhibition was tested using p-nitrophenyl substrate-analogs to assay chitinase and chitobiase activities in the presence of increasing concentrations of N-acetyl-D-glucosamine (NAG). The results shown in FIG. 15a indicate that both activities in culture supernatant are inhibited by the end product (NAG). […]

A word on the Ki: it is a measure of affinity in units of concentration, obtained from inhibition or displacement. Take `CC(=O)N[C@H]1C(O)O[C@H](CO)[C@@H](O)[C@@H]1O` (stereo partly drawn) [N-acetyl-D-glucosamine, 2-acetamido-2-deoxy-D-glucose]: in assay [1] (10 min, pH 7, 40-mM NAG in the assay media, p-nitrophenyl substrate analog, culture supernatant, read-out: chitobiase activity drop), the inhibition at 40000 µM came to 70%. The Ki in assay [1] (noncompetitive inhibition, substrate p-nitrophenyl N-acetyl-β-D-glucosaminide, 0-1.67 mM NAG, calculated from Eadie-Hofstee analysis, read-out: inhibition constant Ki) is 1 mM. In addition, the “total chitinase activity lost” value in assay [2] came out at 30%.
